Experimental data: US9951055B2, “Thiazole-based inhibitors of scavenger receptor BI” (THE BROAD INSTITUTE, INC., priority 2012, dated 2018)
Positions count from the first letter of the chain named. “Also recorded” adds a separate entry of the source. Like-named read-outs stand apart in the source and are kept apart here.

Assays:
[1] = molecular target: T1, murine SR-BI with the C384S mutation (Mus musculus, UniProt Q61009, C384S); test: Mutant SR-BI cholesterol efflux assay; type: cell-based
T1 construct: expressed in transfected cells; host or cells: CHO cell line lacking LDL receptors (variant of ldlA[mSR-BI])
T1 sequence (Q61009 1-509 C384S): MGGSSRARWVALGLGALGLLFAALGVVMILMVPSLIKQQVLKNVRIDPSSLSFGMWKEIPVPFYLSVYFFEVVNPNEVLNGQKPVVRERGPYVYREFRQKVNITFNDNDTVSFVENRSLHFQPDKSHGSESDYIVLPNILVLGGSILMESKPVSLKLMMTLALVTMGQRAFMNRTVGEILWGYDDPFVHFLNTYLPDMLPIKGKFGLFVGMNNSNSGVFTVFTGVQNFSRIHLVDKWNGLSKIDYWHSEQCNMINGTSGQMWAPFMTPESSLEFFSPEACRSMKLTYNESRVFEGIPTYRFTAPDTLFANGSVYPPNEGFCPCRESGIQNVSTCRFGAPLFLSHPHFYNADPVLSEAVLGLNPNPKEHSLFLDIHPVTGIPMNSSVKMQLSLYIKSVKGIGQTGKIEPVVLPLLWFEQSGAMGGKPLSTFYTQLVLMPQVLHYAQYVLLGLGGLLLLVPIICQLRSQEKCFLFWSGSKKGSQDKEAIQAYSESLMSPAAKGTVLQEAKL
Protocol: Mutant SR-BI Cholesterol Efflux Assay (SA 10: AID Nos. 588843, 602138)
BLT-1 is known to interact at cysteine 384 of SR-BI (16). […] This assay is used to determine if the compounds work in a similar fashion to BLT-1 and require Cys384 to alter the efflux of free cholesterol to HDL.
On Day 0, 50,000 cells expressing murine SR-BI with the C384S mutation per well were plated in 24-well plates. On the following day, […] On Day 1, the medium was replaced with Ham's F12 medium supplemented with 10% bovine lipoprotein deficient serum with 1 μCi/ml [1,2-^3H]cholesterol (40-60 Ci/mmol). On Day 3, the cells were washed to remove serum and incubated in Ham's F12 plus 1% fatty acid-free BSA. On Day 4, the cells were washed and pretreated with compounds for 1 hour. Subsequently, the cells were incubated for an additional 2 hours with the same concentrations of small molecules and with unlabeled HDL (final HDL concentration of 100 μg protein/ml). […] The amount of [^3H]cholesterol in the medium and within cells was calculated using liquid scintillation counting. Total cellular [^3H]cholesterol was determined as the sum of the radioactivity in the efflux medium plus the radioactivity in the cells and was used to calculate the [^3H]cholesterol efflux (percent of total [^3H]cholesterol released into the medium).

murine SR-BI = molecular target: T2, murine SR-BI (Mus musculus, UniProt Q61009); test: DiI-HDL uptake assay with washout; type: cell-based
T2 construct: expressed in transfected cells; host or cells: ldlA[mSR-BI]; (CHO ldlA7 derivative lacking the LDL receptor)
T2 sequence (Q61009 1-509): T1 sequence (Q61009 1-509 C384S) with S384C
Protocol: DiI-HDL Uptake Assay with Washout (SA 5: AID No. 588831)
This is a modification of the primary assay where cells are treated with compound prior to the addition of DiI-HDL but no compound is present during the DiI-HDL treatment period. ldlA[mSR-BI]cells were plated into 384-well plates at 30 μl per well and incubated overnight. Cells were treated with compound for 3 hours, then media were removed and the cells were washed with PBS before fresh lipoprotein-free media (Ham's F12/0.5% fatty acid-free Bovine Serum Albumin [BSA]/25 mM HEPES pH 7.4) was added with […] DiI-HDL. Cells took up the DiI via SR-BI over 3 hours in the absence of compound. After significant uptake of the DiI, the cells became fluorescent. The level of fluorescence correlates with the amount of DiI uptake and can be measured with a standard plate reader. The uptake of lipid (represented by DiI) was inhibited by the compound BLT-1.

ldlA[mSR-BI] cells = test: Cell cytotoxicity assay (CellTiter-Glo); type: cell-based, Chinese hamster
Protocol: It is possible that a compound will cause cells to decrease HDL-mediated DiI uptake due to nonspecific consequences of cellular toxicity, representing a second class of false positive hits. The cells were treated with compounds for 3 hours or 24 hours, and then cell viability was measured using the CellTiter-Glo Assay (Promega), a luciferase-based reagent that measures cellular ATP levels. The compounds were tested at different concentrations to determine IC50 values. […] Compounds that were active in the primary assay but toxic below 30 μM at 24 hours (but nontoxic at 3 hours) were still considered. […] Data were normalized against DMSO and the positive control (1 μM BLT-1) in Genedata Assay Analyzer.
All available dry powder samples of the remaining, non-quenching compounds were procured from commercial sources and purities were determined. The compounds obtained were then retested in the primary assay and in the cytotoxicity assays. We wanted to rule out any compounds that were cytotoxic, especially in the 3-hour time span of the primary DiI-HDL uptake assay. Therefore, compounds were tested in ldlA[mSR-BI]cells for cytotoxicity at 3 hours and 24 hours using the CellTiter-Glo assay (Promega) that measures cellular ATP as a marker of cell viability. […] Compounds were screened for inhibition of endocytosis using labeled transferrin, which is known to bind the transferrin receptor, enter cells by clathrin-mediated endocytosis, and move to endosomes before being recycled to the cell surface. The BLT compounds have also been tested for potential interference with endocytosis and show no such activity.

SMILES | efflux of cholesterol in Cys384Ser mutant background [1] | inhibition after washout at the IC50 concentration (murine SR-BI) | IC50 (murine SR-BI; cells pre-treated, washed with PBS, DiI-HDL without compound, read-out: IC50 after washout) [nM] | reversibility of inhibition (murine SR-BI; listed as ML278) | reversibility of inhibition (murine SR-BI; listed as Probe 278) | cytotoxicity (ldlA[mSR-BI] cells; listed as ML278) | reversibility of inhibition (murine SR-BI) | cytotoxicity (ldlA[mSR-BI] cells)
COCC(=O)N1CCc2cc(-c3csc(NC(=O)c4cc(OC)cc(OC)c4)n3)ccc21 [Compound 137, 3,5-Dimethoxy-N-(4-(1-(2-methoxyacetyl)indolin-5-yl)thiazol-2-yl)benzamide] | can reduce uptake and efflux in the mutant background | no inhibition | 300 | reversible inhibitor of HDL uptake | reversible inhibitor | no cytotoxicity at 24 hours; also recorded: shows no cytotoxicity | – | –
CCCCCCC1CCCC1=NNC(N)=S (stereo not drawn) [BLT-1, reference compound] | does not significantly reduce uptake of HDL or efflux of cholesterol | – | – | – | – | – | nonreversible covalent modifier of SR-BI | toxic to cells
